Measured values: PubChem BioAssay (NCI)
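Growth conditions: 96-well plates. Treatment: test compound, 48 hours, 5 concentrations. Analysis: linear interpolation between bracketing concentrations; unreached endpoints set to highest concentration. GI50 = concentration required for 50% inhibition of growth. TGI marks complete inhibition of growth.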

Assays:
Experiment in all cases: DTP human tumour cell line panel, 48 h
NCI-H460 lung = system: NCI-H460 lung
OVCAR-3 ovarian = system: OVCAR-3 ovarian
OVCAR-4 ovarian = system: OVCAR-4 ovarian
SF-268 CNS = system: SF-268 CNS
SK-MEL-5 melanoma = system: SK-MEL-5 melanoma
SNB-75 CNS = system: SNB-75 CNS
SR leukemia = system: SR leukemia
T-47D breast = system: T-47D breast
KM20L2 colon = system: KM20L2 colon
M19-MEL melanoma = system: M19-MEL melanoma

Row | SMILES | GI50 (NCI-H460 lung) | TGI (NCI-H460 lung) | GI50 (OVCAR-3 ovarian) | TGI (OVCAR-3 ovarian) | GI50 (OVCAR-4 ovarian) | TGI (OVCAR-4 ovarian) | GI50 (SF-268 CNS) | TGI (SF-268 CNS) | GI50 (SK-MEL-5 melanoma) | TGI (SK-MEL-5 melanoma) | GI50 (SNB-75 CNS) | TGI (SNB-75 CNS) | GI50 (SR leukemia) | TGI (SR leukemia) | GI50 (T-47D breast) | TGI (T-47D breast) | TGI (KM20L2 colon) | TGI (M19-MEL melanoma) | GI50 (KM20L2 colon)
1 | NC(=S)N/N=C/c1ccc(OC(=O)COc2ccccc2)cn1 | 5.04 µM | 63.4 µM | 2.17 µM | > 100 µM | 3.39 µM | > 100 µM | 2.95 µM | > 100 µM | 3.12 µM | 29.1 µM | 10.4 µM | > 100 µM | 0.596 µM | > 100 µM | 7.45 µM | > 100 µM |  |  | 
2 | CC1NCCc2c1[nH]c1cc(O)ccc21 (stereo not given) |  | > 100 µM |  | > 100 µM |  | > 100 µM |  | > 100 µM |  | > 100 µM |  | > 100 µM |  |  |  |  | > 100 µM | > 100 µM | 
3 | O=C(Nc1cc(C(F)(F)F)cc(C(F)(F)F)c1)Nc1ccc(OCc2nnc(-c3ccc(Cl)cc3)o2)c(F)c1 | 2 µM | 7.65 µM | 1.08 µM | 3.92 µM | 2.31 µM | 10 µM | 4.08 µM | 21 µM | 1.51 µM | 2.96 µM | 1.32 µM | 5.37 µM | 2.38 µM | 10 µM | 1.85 µM | 8.04 µM |  |  | 
4 | O=C(Nc1nc(-c2ccccc2)cs1)c1cc(O)c(O)c(O)c1 | 3.43 µM | 17 µM | 3.39 µM | 13.6 µM | 2.22 µM | 57.3 µM | 2.72 µM | 31.9 µM | 3.6 µM | 20.7 µM | 1.92 µM | > 100 µM | 1.62 µM | 19.9 µM | 2.34 µM | 22.8 µM |  |  | 
5 | N#CSCC1CC(O)(c2ccccc2)CC(c2ccc(Cl)cc2)O1 (stereo not given) | 2.33 µM | 6.38 µM | 1.72 µM | 3.14 µM | 4.44 µM | 15.3 µM | 1.8 µM | 3.29 µM | 0.559 µM | 14.9 µM | 3.58 µM | 13.3 µM | 1.65 µM | 5.02 µM | 1.7 µM | 6.27 µM |  |  | 
6 | COc1cc2oc(-c3cccc(C(=O)Nc4ccc(C)cc4)c3)cc(=O)c2c(OC)c1OC | 1.47 µM | > 100 µM | 5.39 µM | > 100 µM | 2 µM | > 100 µM | 5.61 µM | > 100 µM | 1.03 µM | 2.42 µM | 1.16 µM | 5.38 µM | 2.53 µM | 40.6 µM | 1.94 µM | > 100 µM |  |  | 
7 | C=C1[C@@H](O)C[C@H]2C(C)(C)C[C@H](Cl)C[C@]2(C)[C@H]1C[C@H](O)[C@H]1CC(=O)NC1=O | < 0.01 µM | 0.29 µM | 0.0191 µM | 0.289 µM | 0.0174 µM | 0.391 µM | 0.0179 µM | 0.526 µM | < 0.0134 µM | 0.0363 µM | 0.0287 µM | 0.706 µM | 0.0142 µM |  | < 0.0113 µM | 0.0819 µM |  |  | 
8 | O=C(NCCNC(=O)c1ccc(F)cc1)Nc1ccc(-n2cc(-c3ccncc3)c(-c3ccc(Cl)c(O)c3)n2)cc1 | 0.329 µM | 10.5 µM | 0.326 µM | 1.2 µM | 0.585 µM | > 100 µM | 0.427 µM | 7.33 µM | 0.28 µM | 1.12 µM | 3.05 µM | > 100 µM | 0.299 µM | 2.62 µM | 0.884 µM | 16 µM |  |  | 
9 | COc1ccc2c(c1)C(=O)c1c-2n(CCCN=[N+]=[N-])c(=O)c2cc(N)ccc12 | > 100 µM | > 100 µM | > 100 µM | > 100 µM | 17.8 µM | > 100 µM | > 100 µM | > 100 µM | > 100 µM | > 100 µM |  | > 100 µM | 89.6 µM | > 100 µM | > 100 µM | > 100 µM |  |  | 
10 | Cc1nnc2n1N=C(c1ccc(-c3ccc([N+](=O)[O-])cc3)o1)CS2 |  | > 100 µM |  | > 100 µM |  | > 100 µM |  | > 100 µM |  |  |  | > 100 µM |  | > 100 µM |  |  | > 100 µM | > 100 µM | 
11 | Cc1ccc(NC(=O)N2CCCCC2)cc1[N+](=O)[O-] | > 100 µM | > 100 µM | > 100 µM | > 100 µM | > 100 µM | > 100 µM | > 100 µM | > 100 µM | > 100 µM | > 100 µM | > 100 µM | > 100 µM | > 100 µM | > 100 µM | 77.1 µM | > 100 µM |  |  | 
12 | Cn1ccc2c3c(=O)cc[nH]c3ccc21 | > 100 µM | > 100 µM | > 100 µM | > 100 µM | > 100 µM | > 100 µM | > 100 µM | > 100 µM | > 100 µM | > 100 µM | > 100 µM | > 100 µM | > 100 µM | > 100 µM | > 100 µM | > 100 µM |  |  | 
13 | CC(=O)N1N=C(c2ccc(Nc3nc(Nc4ccc(F)cc4)nc(Nc4ccc(Cl)cc4)n3)cc2)CC1c1ccc(N(C)C)cc1 (stereo not given) | 6.68 µM | 45 µM | 9.51 µM | 31.7 µM | 4.41 µM | > 100 µM | 12.1 µM | 49.2 µM | 6.68 µM | 19.3 µM | 3.02 µM | 20.3 µM | 2.1 µM | 5.18 µM | 2.01 µM | 16 µM |  |  | 
14 | OCCSCC/C(=N\N=C(/CCSCCO)c1ccccc1)c1ccccc1 |  | > 100 µM |  | > 100 µM |  | > 100 µM |  | > 100 µM |  | > 100 µM |  |  |  |  |  |  | > 100 µM | > 100 µM | 
15 | C/C=C/C=C/CCCCCCCCCCCCC[C@]1(OC)C=CC(CC(=O)OC)OO1 (stereo not given in full) |  | 46.8 µM | 22.1 µM | 42.2 µM | 12.5 µM | 25.9 µM |  | 46.4 µM |  | 31.1 µM |  | 31.2 µM |  |  |  |  | 51.1 µM | 33 µM | 23.9 µM
16 | Cc1cc(Cl)cc2c1NC(=O)C2(O)CC(=O)c1ccc(F)cc1 (stereo not given) |  | > 100 µM |  | 96.5 µM |  | 98.1 µM |  | > 100 µM |  |  |  | > 100 µM |  |  |  |  | > 100 µM | 17.9 µM | 
